Patent publication US9714245B2, “Carboline compounds usable in the treatment of neurodegenerative diseases” (ALZPROTECT, priority 2013, dated 2017)
pIC50: −log10 of the molar value.

What was measured:
AICD = experiment: Quantification of AICD by Western blot in SY5Y-APPWT cells; format: cell-based, Human; conditions: compared to a control with a value of 100
Method: (§1) Quantifications of APP-CTFs and AICD
(§2) After treatment, SY5Y-APP^WT cells were scrapped and lysed in 1× Lysis Buffer (250 mM NaCl, 50 mM Tris, pH 8.8, 5 mM EDTA, 2.5% Triton X-100, 1% Deoxycholate, 0.1% SDS). For the Western blotting, an equal amount of total proteins (20 μg/lane) was loaded on a 16.5% Tris-Tricine or 8-16% Tris-Glycine polyacrylamide gel.
(§3) SDS-polyacrylamide gel electrophoresis (PAGE) was performed using the Criterion™ Tris-Tricine-precast or Bis-Tris-precast criterion gels (Bio-Rad Bioresearch division). Proteins were transferred to a […] nitrocellulose membrane (Hybond, Amersham Biosciences) at 2.5 mA/cm2 per gel using the Criterion™ Blotter system (Amersham Biosciences), according to the manufacturer's instructions. Proteins were reversibly stained with Ponceau Red in order to check the quality of the transfer of protein. The membranes were blocked in 25 mM Tris-HCl pH 8.0, 150 mM NaCl, 0.1% Tween-20 (v/v) and 5% (w/v) of skimmed milk for 30 min. Membranes were incubated overnight at 4° C. with appropriate dilution of the primary antibodies, and were incubated for 1 h at room temperature with secondary antibody. […] Quantifications were calculated with Image J software (NIH) and the data were collected using Excel Software (Microsoft). The loading variations between Western blot lanes were normalized according to the tubulin signal. Quantification of CTFα and AICD were compared to control conditions (considered as 100 in arbitrary units) and are presented for two concentrations of the drug: 1 and 10 μM.

secreted Aβ1-42 = experiment: Aβ1-42 secretion by APP-transfected neuroblastoma cells (ELISA); format: cell-based; conditions: Homo sapiens, Neuroblastoma cell; SKNSH-SYSY APPWT cells; concentration decreasing secreted Aβ1-42 to 50% of basal amount
Method: (§4) Cell Cultures and Transfections to Test Activity on Aβ1-40 and Aβ1-42 Secretion
(§5) Human neuroblastoma cell line SKNSH-SYSY (ATCC® Catalog No. CRL-2266™), HEK (ATCC® CRL-1573™) and COS-1 (ATCC® CRL-1650™) cells were maintained in Dulbecco's modified Eagle medium (DMEM, GIBCO BRL) supplemented with 10% fetal calf serum, 2 mM L-glutamine, 1 mM non-essential amino acids, 50 units/ml penicillin/streptomycin (Invitrogen, France) in a 5% CO2 humidified incubator at 37° C. APP695 cDNA was subcloned into eukaryotic expression vector pcDNA3 (Invitrogen), allowing for a G418 (Invitrogen) selection of clones. This APP cDNA coding for the 695 amino acid long isoform was transfected into SKNSH-SYSY cells using the ethyleneimine polymer ExGen 500 (Euromedex) according to the manufacturer's instructions. The cells expressing APP (SKNSH-SYSY APP^WT) were selected by the addition of 200 μg/ml G418 in the cell medium. To quantify AR which released in the cell culture medium, the collected medium was spun at 200×g to eliminate the cell debris. The concentrations of secreted Aâ1-40 and Aβ1-42 were determined using the Human Aβ (1-40) Assay Kit (IBL) or the INNOTEST™ beta-Amyloid (1-42) ELISA Kit (Innogenetics), according to manufacturer's instructions. The results were expressed as IC50, i.e. the concentration able to decrease to 50% the basal amount of secreted Aβ peptide 1-40 and 1-42.

secreted Aβ1-40 = experiment: Aβ1-40 secretion by APP-transfected neuroblastoma cells (ELISA); format: cell-based; conditions: Homo sapiens, Neuroblastoma cell; SKNSH-SYSY APPWT cells; concentration decreasing secreted Aβ1-40 to 50% of basal amount
Method: as §4, §5

[1] = Cytotoxicity evaluation (MTS assay); format: cell-based, Human; conditions: human, SY5Y-APPWT neuroblastoma cells (expressing APP); SY5Y-APPWT cells, 24 h treatment, MTS
Method: Human neuroblastoma cell line SY5Y-APP^WT was used to assess the cytotoxic effects of each compound. SY5Y-APP^WT cells were seeded at 20000 cells/well onto 96-well plates and were cultured in Dulbecco's modified Eagle medium (DMEM, Invitrogen) supplemented with 10% fetal calf serum (PAA), 2 mM L-glutamine (Invitrogen), 1 mM non-essential amino acids (Invitrogen), 50 units/ml penicillin/streptomycin (Invitrogen), and 200 μg G418=geneticin (Invitrogen) (selection for cells expressing APP) in a 5% CO2 humidified incubator at 37° C. After 24 h, the cells were washed and incubated with the compound at 0.1; 0.3; 1; 3; 10; 30 and 100 μM or with DMSO as control diluted in the same culture medium at 37° C. in 5% CO2. After 24 h of treatment, cytotoxicity was determined by using colorimetric MTS assay (CellTiter 96® Aqueous One Solution Cell Proliferation Assay-MTS Promega) according to the protocol of the manufacturer. Absorbance was read at 490 nm and results were expressed as % from control condition considered as 100%.

CTFα = experiment: Quantification of APP-CTFα by Western blot in SY5Y-APPWT cells; format: cell-based, Human; conditions: compared to a control with a value of 100
Method: as §1, §2, §3

SMILES	pIC50 (secreted Aβ1-42)	pIC50 (secreted Aβ1-40)	AICD (10 μM) (AICD) [arbitrary units]	CC50 at 24 h [1] [µM]	CTFα (10 μM) (CTFα) [arbitrary units]
COc1ccc2[nH]c3c(c2c1)CN(CCCN1CCN(CCCN(CC(C)C)CC(C)C)CC1)CC3 [Compound 3.1b, N,N-diisobutyl-3-(4-(3-(8-methoxy-1,3,4,5-tetrahydro-1H-pyrido[4,3-b]indol-2-yl)propyl)piperazin-1-yl)propylamine]	–	–	16400	> 10	–
Cc1ccc2[nH]c3c(c2c1)CN(CCCN1CCN(CCCN(CC(C)C)CC(C)C)CC1)CC3 [Compound 3.1c, N,N-diisobutyl-3-[4-(3-(8-methyl-1,3,4,5-tetrahydro-1H-pyrido[4,3-b]indol-2-yl)propyl)piperazin-1-yl]propylamine]	5.00	6.00	–	10	355
COc1ccc2[nH]c3c(c2c1)CN(CCCN1CCN(CCN(CC(C)C)CC(C)C)CC1)CC3 [Compound 3.1g, N,N-diisobutyl-2-(4-(3-(8-methoxy-1,3,4,5-tetrahydro-1H-pyrido[4,3-b]indol-2-yl)propyl)piperazin-1-yl)ethylamine]	5.46	5.60	–	–	–
Fc1ccc2[nH]c3c(c2c1)CN(CCCN1CCN(CCCN(Cc2ccccc2)Cc2ccccc2)CC1)CC3 [Compound 3.1h, N,N-dibenzyl-3-[4-(3-(8-fluoro-1,3,4,5-tetrahydro-1H-pyrido[4,3-b]indol-2-yl)propyl)piperazin-1-yl]propylamine]	5.60	5.60	–	4.8	–
CC(C)CN(CCCN1CCN(CCCN2CCc3c([nH]c4ccccc34)C2c2ccccc2)CC1)CC(C)C (stereo not drawn) [Compound 3.2a, N,N-diisobutyl-3-{4-[3-(1-phenyl-1,3,4,9-tetrahydro-1H-beta-carbolin-2-yl)propyl]piperazin-1-yl}propylamine]	5.30	5.70	–	–	–
CC(C)CN(CCN1CCN(CCCN2CCc3c([nH]c4ccccc34)C2)CC1)CC(C)C [Compound 3.2h, N,N-diisobutyl-2-{4-[3-(1,3,4,9-tetrahydro-1H-beta-carbolin-2-yl)propyl]piperazin-1-yl}ethylamine]	5.52	5.52	–	–	–

More lines, main results first:

pIC50 (secreted Aβ1-42)	pIC50 (secreted Aβ1-40)	SMILES	AICD (10 μM) (AICD) [arbitrary units]	CC50 at 24 h [1] [µM]	CTFα (10 μM) (CTFα) [arbitrary units]
5.68	5.92	CC(C)CN(CCCN1CCN(CCCN2CCc3[nH]c4ccccc4c3C2)CC1)CC(C)C [Compound 3.1a, N,N-diisobutyl-3-[4-(3-(1,3,4,5-tetrahydro-1H-pyrido[4,3-b]indol-2-yl)propyl)piperazin-1-yl]propylamine]	1081	–	–
< 5.00	5.00	COc1ccc2[nH]c3c(c2c1)CN(CCCN1CCN(CCCN2CCCCC2)CC1)CC3 [Compound 3.1i, 3-(4-(3-(8-methoxy-1,3,4,5-tetrahydro-1H-pyrido[4,3-b]indol-2-yl)propyl)piperazin-1-yl)propylpiperidine]	–	> 100	–
< 5.00	–	CC(C)CN(CCCN1CCN(CCCN2CCc3c([nH]c4ccc(Cl)cc34)C2)CC1)CC(C)C [Compound 3.2b, N,N-diisobutyl-3-{4-[3-(6-chloro-1,3,4,9-tetrahydro-1H-beta-carbolin-2-yl)propyl]piperazin-1-yl}propylamine]	7417	> 100	716
5.30	5.30	c1ccc2c3c([nH]c2c1)CN(CCCN1CCN(CCCN2CCCCC2)CC1)CC3 [Compound 3.2i, 1-[3-(piperidin-1-yl)propyl]-4-(3-{1H,2H,3H,4H,9H-pyrido[3,4-b]indol-2-yl}propyl)piperazine]	–	> 100	–
5.52	5.30	c1ccc2c3c([nH]c2c1)CN(CCCN1CCN(CCN2CCCCC2)CC1)CC3 [Compound 3.2j, 1-[2-(piperidin-1-yl)ethyl]-4-(3-{1H,2H,3H,4H,9H-pyrido[3,4-b]indol-2-yl}propyl)piperazine]	–	> 100	–
